# Results from patent US11331295B2, “High-dose statins for age-related macular degeneration” (MASSACHUSETTS EYE AND EAR INFIRMARY, priority 2015, dated 2022).
# Where two headings read alike, the source gives them in different places.
# How the values were obtained:
# [1] = test system: patient with AMD (large soft drusen); test: Report of initial case: 80 mg atorvastatin daily in a patient with AMD; assay type: in vivo, human
# Experimental: (§1) A case report and pilot multi-center prospective interventional study were conducted with IRB approval. Inclusion criteria were patients over the age of 50 with diagnosis of AMD and the presence of many large, soft drusen/drusenoid PEDs in both eyes. […] Pseudophakia was not a reason for exclusion, unless accompanied by significant posterior capsular opacity.
# An otherwise healthy person with AMD presented deteriorating visual acuity. Their baseline visual acuity was 20/25 with significant distortion; they were already taking Age-Related Eye Disease Study (AREDS) supplementation. […] Spectral domain optical coherence tomography (SD-OCT) confirmed the significant extent of these deposits and pigment epithelial detachments as well as the overlying RPE and photoreceptor architectural distortion (FIG. 2, top row). No subretinal or intraretinal fluid was present. Standard AREDS supplementation was continued. […]
# [2] = test system: patients with AMD with many large, soft drusen/drusenoid PEDs
# Experimental: as §1
# ARPE-19 cells = test: Phagocytosis analysis by flow cytometry (fluorescent carboxylate microspheres); assay type: cell-based, human; details: 6 hours; for percentage of phagocytic ARPE-19 cells: DMSO control 31%; for mean fluorescence intensity of cells: control 340; for percentage of ARPE-19 phagocytic cells / mean fluorescence intensity (phagocytic index): 50 μM statin; for percentage of ARPE-19 phagocytic cells: control 31%; for mean fluorescence intensity (phagocytic index): control 332
# Experimental: A flow cytometric assay was used to evaluate cell phagocytosis according to a protocol described by Pranab (Mukherjee et al., 2007 Proc Natl Acad Sci USA 104:13158-63). Briefly, ARPE-19 cells were seeded in 12-well plates and cultured until 90% confluent. […] After incubation, cells were washed with PBS three times to remove any extracellular beads, then trypsinized (0.25% trypsin-EDTA, Gibco, US) for 1 minute, and neutralized with pre-warmed culture medium. The cell suspension was collected and centrifuged (241 g, 5 minutes). The cell pellet was re-suspended in 0.5 ml PBS for each sample. Subsequently, the cells were analyzed for green phagocytized fluorescent beads (excitation wavelength of 441 nm and emission wavelength of 486 nm) by a FACScalibur flow cytometer using the CellQuest 3.0.1 (Becton & Dickinson, Mountain View, Calif., US) and FlowJo 10.0 software. The percent of phagocytic cells present in each group was recorded as well as the mean fluorescence intensity of engulfed particles.
# The percentage of phagocytic ARPE-19 cells and the mean fluorescence intensity of engulfed particles per group were measured by flow cytometry 6 hours after treatment.
# Vavvas et al., 2016 EBioMedicine 5:198-203). […] The effects of cholesterol crystals and ox-LDL on the phagocytic function of RPE cells were studied because impairment of this function is linked to AMD (Nandrot et al., 2007 Adv Exp Med Biol 801:978-1). ARPE-19 cells were treated with 2 mg/ml cholesterol crystals for 6 hours, or 300 μg/ml oxLDL for 18 hours. The phagocytic function was then assessed by flow cytometry, as described in the methods.
# IL-6 = IL-6 secretion from ARPE-19 cells (western blot of culture medium); assay type: cell-based, human
# Experimental: (§2) ARPE-19 cells were seeded in 6-well plates at a density of 1×10^5 cells/well. […] The membrane was then washed and incubated with secondary antibodies. The membrane was developed with enhanced chemiluminescence. The intensity of protein bands was measured using the software Image Lab 4.1 (Bio-Rad, Hercules, Calif., US).
# Cholesterol crystals induce the secretion of the inflammatory cytokines IL-6 and IL-8 in ARPE-19 cells (Hu et al., 2014 Discovery Med. 18(97):7-14). […] The levels of IL-6 and IL-8 were evaluated using western blot or ELISA. As expected, cholesterol crystals increased ARPE-19 secretion of IL-6 and IL-8, 3.2- and 2.5-fold, respectively, compared to control treatment (FIGS. 7A and B). […] Similar to cholesterol crystals, incubation of ARPE-19 with ox-LDL led to a 2.6- and 1.3-fold increase in secreted IL-6 and IL-8, respectively.
# IL-8 = IL-8 secretion from ARPE-19 cells (western blot / ELISA); assay type: cell-based, human
# Experimental: as §2
# IL-8 induced by oxLDL was measured by analysis of conditioned media of ARPE-19 cells using an ELISA kit (IL-8, R&D Systems, Minneapolis, Minn., US) according to the manufacturer's instructions.
# Cholesterol crystals induce the secretion of the inflammatory cytokines IL-6 and IL-8 in ARPE-19 cells (Hu et al., 2014 Discovery Med. 18(97):7-14). […] The levels of IL-6 and IL-8 were evaluated using western blot or ELISA. As expected, cholesterol crystals increased ARPE-19 secretion of IL-6 and IL-8, 3.2- and 2.5-fold, respectively, compared to control treatment (FIGS. 7A and B). […]. […].
# [3] = six months after 80 mg atorvastatin
# [4] = 50 μM atorvastatin, 300 μg/ml ox-LDL 18 hours
# [5] = 50 μM atorvastatin, cholesterol crystals
smiles,measurement,setting,value
CC(C)c1c(C(=O)Nc2ccccc2)c(-c2ccccc2)c(-c2ccc(F)cc2)n1CC[C@@H](O)C[C@@H](O)CC(=O)O [atorvastatin],visual acuity improved by,"[1]; person with AMD, six months after 80 mg atorvastatin daily",12 letters
same,atrophy of the RPE (SD-OCT),[1]; [3],without accompanying atrophy of the RPE
same,drusen (fundus examination and SD-OCT),[1]; [3],complete disappearance of the drusen
same,visual acuity,"[1]; six months after 80 mg atorvastatin daily, 20/30 before treatment",20/20
same,Chol. Reduction,[2]; All (n = 23),−62 +/− 35
same,Last VA (letters),"[2]; All (n = 23), initial 77.6 +/- 8.3",77.7 +/− 8.4 letters
same,Last Cholesterol,"[2]; All (n = 23), initial 208 +/- 34.9",147 +/− 31
same,Chol. Reduction,[2]; Non Responders (n = 13),71 +/− 35.9
same,VA gain (loss),[2]; Non Responders (n = 13),−2.3
same,Last VA (letters),"[2]; Non Responders (n = 13), initial 80.2 +/- 6",77.9 +/− 7.1 letters
same,Last Cholesterol,"[2]; Non Responders (n = 13), initial 207 +/- 37.4",136 +/− 24.4
same,Chol. Reduction,[2]; Responders (n = 10),49 +/− 31.2
same,VA gain (loss),[2]; Responders (n = 10),+3.3
same,Last VA (letters),"[2]; Responders (n = 10), initial 74.2 +/- 9.9",77.5 +/− 10.3 letters
same,Last Cholesterol,"[2]; Responders (n = 10), initial 210 +/- 33.4",161 +/− 34.2
same,patients showing near-complete regression of drusen deposits,[2]; among 23 patients who completed,eight
same,effect on progression of pigmentary changes or of pre-existing atrophy,[2]; high-dose atorvastatin,did not appear to have a positive or negative effect
same,letters lost on average,[2]; non-responders,2.2 letters
same,"patients who exited the study (cramps, muscle aches, hair loss)",[2]; of 26 patients enrolled,Three
same,patients who responded to the treatment (regression of drusen deposits),[2]; patients who completed the pilot study,Ten of 23
same,average time to response,[2]; responders,11.7 months
same,letters gained on average,[2]; responders,3 letters
same,"time to response, range",[2]; responders,3-22 months
same,percentage of phagocytic ARPE-19 cells,ARPE-19 cells; 1 μM atorvastatin,35%
same,mean fluorescence intensity of cells,ARPE-19 cells; 1 μM atorvastatin,368
same,percentage of phagocytic ARPE-19 cells,ARPE-19 cells; 25 μM atorvastatin,40%
same,mean fluorescence intensity of cells,ARPE-19 cells; 25 μM atorvastatin,443
same,decrease in mean fluorescence intensity induced by ox-LDL,ARPE-19 cells; [4],completely reversed
same,decrease in the percentage of phagocytic cells induced by ox-LDL,ARPE-19 cells; [4],completely reversed
same,percentage of phagocytic ARPE-19 cells,ARPE-19 cells; 50 μM atorvastatin,42%
same,decrease in mean fluorescence intensity induced by cholesterol crystals,ARPE-19 cells; [5],completely reversed
same,decrease in the percentage of phagocytic cells induced by cholesterol crystals,ARPE-19 cells; [5],completely reversed
same,mean fluorescence intensity of cells,ARPE-19 cells; 50 μM atorvastatin,453
same,percentage of ARPE-19 phagocytic cells,ARPE-19 cells,43%
same,percentage of phagocytic ARPE-19 cells,ARPE-19 cells; 75 μM atorvastatin,46%
same,mean fluorescence intensity of cells,ARPE-19 cells; 75 μM atorvastatin,467
same,levels of IL-6 compared to control,"IL-6; 0.1 μM atorvastatin pretreatment, cholesterol crystals (3.2-fold alone)",1.7 fold
same,levels of IL-6 compared to control,"IL-6; 0.1 μM atorvastatin pretreatment, ox-LDL (2.6-fold alone)",1.9 fold
same,levels of IL-6 compared to control,"IL-6; 0.5 μM atorvastatin pretreatment, ox-LDL (2.6-fold alone)",1.3 fold
same,levels of IL-6 compared to control,"IL-6; 1 μM atorvastatin pretreatment, cholesterol crystals (3.2-fold alone)",0.8 fold
same,levels of IL-6 compared to control,"IL-6; 1 μM atorvastatin pretreatment, ox-LDL (2.6-fold alone)",1.4 fold
same,levels of IL-8 compared to control,"IL-8; 0.1 μM atorvastatin pretreatment, cholesterol crystals (2.5-fold alone), western blot",1.8 fold
same,levels of IL-8 compared to control,"IL-8; 0.1 μM atorvastatin pretreatment, ox-LDL (1.3-fold alone), ELISA",1.2 fold
same,levels of IL-8 compared to control,"IL-8; 0.5 μM atorvastatin pretreatment, cholesterol crystals (2.5-fold alone), western blot",1.6 fold
same,levels of IL-8 compared to control,"IL-8; 0.5 μM atorvastatin pretreatment, ox-LDL (1.3-fold alone), ELISA",1.02 fold
same,levels of IL-8 compared to control,"IL-8; 1 μM atorvastatin pretreatment, cholesterol crystals (2.5-fold alone), western blot",1.1 fold
same,levels of IL-8 compared to control,"IL-8; 1 μM atorvastatin pretreatment, ox-LDL (1.3-fold alone), ELISA",0.99 fold
CC[C@H](C)C(=O)O[C@H]1C[C@@H](C)C=C2C=C[C@H](C)[C@H](CC[C@@H]3C[C@@H](O)CC(=O)O3)[C@H]21 [lovastatin],percentage of ARPE-19 phagocytic cells,ARPE-19 cells,53%
same,mean fluorescence intensity (phagocytic index),ARPE-19 cells,502
CCC(C)(C)C(=O)O[C@H]1C[C@@H](C)C=C2C=C[C@H](C)[C@H](CC[C@@H]3C[C@@H](O)CC(=O)O3)[C@H]21 [simvastatin],percentage of ARPE-19 phagocytic cells,ARPE-19 cells,56%
same,mean fluorescence intensity (phagocytic index),ARPE-19 cells,513
